Data published in patent publication US20110230431A1, “FOSFOMYCIN/TOBRAMYCIN COMBINATIONS FOR THE TREATMENT AND PREVENTION OF OPHTHALMIC, OTOLOGICAL AND DERMATOLOGICAL INFECTIONS” (Gilead Sciences, Inc., priority 2008, published 2011).
Like-named read-outs stand apart in the source and are kept apart here.

What was measured:
[1] = test system: S. aureus; experiment: MIC by agar plate dilution method (CLSI); type: cell-based, Staphylococcus aureus
Excerpt: P. aeruginosa strains isolated from patients with cystic fibrosis (CF) were obtained from Children's Hospital and Regional Medical Center (Seattle, Wash.). Clinical isolates of Escherichia coli and Staphylococcus aureus were obtained from The Jones Group Laboratories (JMI; North Liberty, Iowa) and The Clinical Microbiology Institute (CMI; Wilsonville, Oreg.). P. aeruginosa 27853, S. aureus 29213, and E. coli 25922 served as quality control strains^1 and were obtained from The America Type Culture Collection (ATCC; Manassas, Va.). P. aeruginosa ATCC 27853, a fosfomycin and tobramycin susceptible strain, was used in macromolecular biosynthesis and tobramycin uptake experiments. Stock cultures were maintained at −80° C. in Cation-Adjusted Mueller-Hinton Broth (CAMHB) (Remel; Lenexa, Kans.) supplemented with 20% glycerol (VWR: West Chester, Pa.). Cultures for routine use were grown on tryptic soy agar plates+5% sheeps blood (PML Microbiologicals Inc.; Wilsonville, Oreg.) and stored at 4° C.
MICs were determined by the agar plate dilution method according to CLSI guidelines (National Committee for Clinical Laboratory Standards. M7-A6. 6th ed. Villanova (Pa.): NCCLS, 2003; M100-S14. Villanova (Pa.): NCCLS, 2004).

[2] = test system: S. aureus; type: cell-based, Staphylococcus aureus
Experimental: Development of resistance after a single exposure to antibiotic was determined for both clinical and reference isolates of P. aeruginosa, S. aureus, and E. coli. Late Log-phase cultures were centrifuged at 1,400×g at room temperature for 20 min and the cell pellets resuspended in CAMHB. […] The culture plates were incubated at 37° C. for 48 h and the number of colonies on each plate was enumerated manually. The spontaneous mutation frequency (SMF) resulting in antibiotic resistance was calculated by dividing the number of bacteria growing at the defined antibiotic concentration by the number of bacteria in the inoculum (Martinex, J L, Antimicrob Agents Chemother 2000; 44 (1):1771-1777).

[3] = test system: P. aeruginosa ATCC 27853; experiment: Tobramycin uptake studies (3H-tobramycin); type: cell-based, Pseudomonas aeruginosa; details: 10 μg/mL fosfomycin, 3H-tobramycin 2.3 μg/mL, FIG. 7
Experimental: The effects of fosfomycin uptake on tobramycin uptake were determined by measuring uptake of ^3H-tobramycin. A single colony of P. aeruginosa ATCC 27853 was inoculated into 5 mL nutrient broth (NB) (Difco & BBL; Sparks, Md.) and grown overnight at 37° C. with shaking (250 rpm). […] Five milliliter volumes were filtered through 0.45 μm nitrocellulose membrane filters (Whatman Inc., Florham Park, N.J.), pre-soaked with 410 mM MgCl2 (VWR). […] Data were expressed in CPM and represent the mean±SD of four independent experiments. Statistical differences were evaluated by the Student's t-test.

| Compound | Frequency of Resistance 4× MIC ([2]; S. aureus ATCC 29213, 4× MIC) | Frequency of Resistance 8× MIC ([2]; S. aureus ATCC 29213, 8× MIC) | Frequency of Resistance 16× MIC ([2]; S. aureus ATCC 29213, 16× MIC) | Frequency of Resistance 4× MIC ([2]; S. aureus C051, 4× MIC) | Frequency of Resistance 8× MIC ([2]; S. aureus C051, 8× MIC) | Frequency of Resistance 16× MIC ([2]; S. aureus C051, 16× MIC) | Frequency of Resistance 4× MIC ([2]; S. aureus C053, 4× MIC) | Frequency of Resistance 16× MIC ([2]; S. aureus C053, 16× MIC) | Frequency of Resistance 4× MIC ([2]; S. aureus C055, 4× MIC) | Frequency of Resistance 8× MIC ([2]; S. aureus C055, 8× MIC) | Frequency of Resistance 16× MIC ([2]; S. aureus C055, 16× MIC) | Frequency of Resistance 4× MIC ([2]; S. aureus C057, 4× MIC) | Frequency of Resistance 8× MIC ([2]; S. aureus C057, 8× MIC) | Frequency of Resistance 16× MIC ([2]; S. aureus C057, 16× MIC) | also measured |
| --- | --- | --- | --- | --- | --- | --- | --- | --- | --- | --- | --- | --- | --- | --- | --- |
| C[C@@H]1O[C@@H]1P(=O)(O)O [Fosfomycin, fosfomycin disodium] | 2.6 × 10^−8 | 5.0 × 10^−8 | <1.8 × 10^−10 | 3.0 × 10^−5 | 3.6 × 10^−7 | 8.4 × 10^−6 | 7.7 × 10^−3 | 4.3 × 10^−6 | 2.5 × 10^−6 | <4.3 × 10^−9 | 8.2 × 10^−6 | 2.1 × 10^−5 | 1.1 × 10^−7 | 2.0 × 10^−7 | MIC ([1]; Staphylococcus aureus, ATCC29213, S. aureus ATCC 29213, read-out: MIC): 2 µg/mL; MIC ([1]; Staphylococcus aureus, S. aureus C051, read-out: MIC): 1 µg/mL; MIC ([1]; Staphylococcus aureus, S. aureus C053, read-out: MIC): 1 µg/mL; MIC ([1]; Staphylococcus aureus, S. aureus C055, read-out: MIC): 8 µg/mL; MIC ([1]; Staphylococcus aureus, S. aureus C057, read-out: MIC): 2 µg/mL; Frequency of Resistance 8× MIC ([2]; S. aureus C053, 8× MIC): 1.7 × 10^−7; increase in 3H-tobramycin uptake relative to the no-fosfomycin control [3]: 170% |
| tobramycin sulfate | 1.6 × 10^−7 | 3.9 × 10^−8 | <1.8 × 10^−10 | 3.5 × 10^−6 | 1.5 × 10^−8 | <2.0 × 10^−10 | 2.0 × 10^−7 | <2.3 × 10^−10 | 3.8 × 10^−7 | <4.3 × 10^−9 | <2.3 × 10^−10 | 1.1 × 10^−6 | <1.4 × 10^−10 | <3.2 × 10^−10 | MIC ([1]; S. aureus ATCC 29213): 0.25 µg/mL; MIC ([1]; S. aureus C051): 0.25 µg/mL; MIC ([1]; S. aureus C053): 0.25 µg/mL; MIC ([1]; S. aureus C055): 0.25 µg/mL; MIC ([1]; S. aureus C057): 0.5 µg/mL |
